From EP4008716A1, “NOVEL INHIBITORS OF INSULIN-LIKE GROWTH FACTOR 2 MRNA BINDING PROTEINS” (Martin-Luther-Universität Halle-Wittenberg, priority 2020, dated 2022)

System: ES-2 cells
Assay: Cytotoxicity / cell vitality by cell confluency (IncuCyte live-cell imaging) relative to DMSO controls
Assay type: cell-based
Settings: Homo sapiens, ovarian cancer-derived ES-2 cells, 72 h post compound application, eleven concentrations, two-fold dilution from 20µM, mean of three independent studies
Procedure: All novel inhibitors were explored for their cytotoxic activity in ovarian cancer-derived ES-2 cells. In these cell models, BTYNB was prior shown to impair cell vitality and metastatic potential in vitro and cancer mouse models (15). For the respective studies ES-2 cells were plated and exposed to increasing concentration of the compounds and cell vitality was monitored by determining cell confluency relative to DMSO controls using an IncuCyte cell imaging system, essentially as described recently (15). For determining the impact of the developed compounds on ES-2 cell vitality, cells were cultured in Dulbecco's modified eagle medium (DMEM) containing phenol red, 4.5 g/L D-Glucose, 0.11 g/L sodium pyruvate, 10% (v/v) fetal bovine serum (FBS) and 2 mM GlutaMAX (Sigma-Aldrich, Darmstadt, Germany). Cells were maintained in under humidified conditions at 37 °C, 5% CO2. For cytotoxicity studies, cells were seeded in 96-well flat-bottom plates at 2 x 10^3 cells per well in 100 µL supplemented DMEM and incubated for 24 h prior to addition of BTYNB derivatives. Compounds were analyzed at eleven concentrations using a two-fold dilution with an initial compound concentration of 20µM in DMSO (solvent). Cells treated with 0.002% (v/v) DMSO served as controls. Cytotoxicity of compound concentrations was determined 72 h post compound application by monitoring cell confluency using an IncuCyte Systems for Live-Cell Imaging. Cell confluency was determined with the IncuCyte 2019B Rev2 software. Confluency of controls was set to 1 (100%) and altered confluency at distinct compound concentrations was calculated as relative confluency. The mean relative confluency at compound concentrations was analyzed in three independent studies with three technical replicates each. The mean values of three analyses were plotted against the logarithmic concentration of compounds and fitted by the non-linear module [Sigmoidal, 4PL, X is log(concentration)] using GraphPad Prism V9(86) for macOS. In Table 1 compounds with EC50 values, indicating the potency of the 58 developed compounds to impair cell vitality, are listed. […] Table 2: EC-values of the synthesized compounds of formula (I)

Compound | EC50 [nM]
COc1ccc(C(=O)Nc2sc(Cc3ccccc3)cc2C(N)=O)cc1COc1ccccc1Cl [compound 44, 5-Benzyl-2-({3-[(2-chlorophenoxy)methyl]-4-methoxybenzoyl}amino)-3-thiophenecarboxamide] | 439
NC(=O)c1cc(Cc2ccccc2)sc1NC(=O)c1cccs1 [compound 31, N-[3-(aminocarbonyl)-5-benzyl-2-thienyl]-2-thiophenecarboxamide] | 671
NC(=O)c1cc(Cc2ccccc2)sc1NC(=O)c1ccccc1 [compound 37, 2-(Benzoylamino)-5-benzyl-3-thiophenecarboxamide] | 2270
COc1ccc(C(=O)Nc2sc(Cc3ccccc3)cc2C(N)=O)cc1COc1ccc(Cl)cc1Cl [compound 47, 5-Benzyl-2-{3-[(2,4-dichlorophenoxy)methyl]-4-methoxybenzamido}thiophene-3-carboxamide] | 293
COc1ccc(C(=O)Nc2sc(Cc3ccccc3)cc2C(N)=O)cc1OCc1ccccc1Cl [compound 48, 2-[3-(2-Chlorobenzyloxy)-4-methoxybenzamido]-5-benzylthiophene-3-carboxamide] | 1100
O=c1[nH]c(-c2ccc(OCc3ccccc3F)cc2)nc2ccccc12 [compound 4, 2-{4-[(2-Fluorobenzyl)oxy]phenyl}-4(3H)-quinazolinone] | 250
Cc1ccc(C(=O)Nc2sc(Cc3ccccc3)cc2C(N)=O)o1 [compound 35, N-[3-(Aminocarbonyl)-5-benzyl-2-thienyl]-5-methyl-2-furamide] | 1340
Cc1cc2c(=O)[nH]c(Cc3ccccc3)nc2s1 [compound 7, 2-Benzyl-6-methylthieno[2,3-d]pyrimidin-4(3H)-one] | 4840
NC(=O)c1cc(Cc2ccccc2)sc1NC(=O)c1ccc2c(c1)OCO2 [compound 38, N-[3-(aminocarbonyl)-5-benzyl-2-thienyl]-1,3-benzodioxole-5-carboxamide] | 1300
NC(=O)c1cc(Cc2ccccc2)sc1NC(=O)CN1CCN(Cc2ccccc2Cl)CC1 [compound 54, 2-{2-[4-(2-Chlorobenzyl)piperazin-1-yl]acetamido}-5-benzylthiophene-3-carboxamide] | 7110
COc1ccc(C(=O)Nc2sc(Cc3ccccc3)cc2C(N)=O)cc1COc1cccc(Cl)c1 [compound 51, 5-Benzyl-2-{3-[(3-chlorophenoxy)methyl]-4-methoxybenzamido}thiophene-3-carboxamide] | 355
NC(=O)c1cc(Cc2ccccc2)sc1NC(=O)c1ccc(COc2ccc(Cl)cc2Cl)s1 [compound 49, N-(5-Benzyl-3-carbamoylthiophen-2-yl)-5-[(2,4-dichlorophenoxy)methyl]thiophene-2-carboxamide] | 560
NC(=O)c1c(NC(=O)c2ccc(Cl)s2)sc2c1CCCC2 [compound 30, 2-{[(5-Chloro-2-thienyl)carbonyl]amino}-4,5,6,7-tetrahydro-1-benzothiophene-3-carboxamide] | 1470
NC(=O)c1cc(Cl)ccc1OCC(=O)c1ccc(Cl)s1 [compound 9, 5-chloro-2-[2-(5-chlorothiophen-2-yl)-2-oxoethoxy]benzamide] | 1330
NC(=O)c1ccccc1NC(=O)c1ccc(Cl)c(Cl)c1 [compound 12, N-[2-(aminocarbonyl)phenyl]-3,4-dichlorobenzamide] | 1880
NC(=O)c1ccccc1OCc1ccc(Cl)s1 [compound 1, 2-[(5-chlorothiophen-2-yl)methoxy]benzamide] | 5610
NC(=O)c1cc(Cc2ccccc2)sc1NC(=O)COc1ccccc1 [compound 40, 5-Benzyl-2-[(phenoxyacetyl)amino]-3-thiophenecarboxamide] | 2420
NC(=O)c1ccccc1NC(=O)CN1CCN(Cc2c(Cl)cccc2Cl)CC1 [compound 22, 2-({[4-(2,6-Dichlorobenzyl)-1-piperazinyl]acetyl}amino)benzamide] | 6460
NC(=O)c1ccsc1NC(=O)c1cccs1 [compound 10, N-[3-(aminocarbonyl)-2-thienyl]-2-thiophenecarboxamide] | 3230
NC(=O)c1cc(Cc2ccccc2)sc1NC(=O)c1ccc(COc2ccc(Br)cc2)cc1 [compound 43, 5-Benzyl-2-({4-[(4-bromophenoxy)methyl]benzoyl}amino)-3-thiophenecarboxamide] | 1190
NC(=O)c1ccccc1OCC(=O)c1ccc(Br)cc1 [compound 19, 2-[2-(4-Bromophenyl)-2-oxoethoxy]benzamide] | 2950

Compound | EC50 [nM]
NC(=O)c1cc(Cc2ccccc2)sc1NC(=O)CN1CCN(Cc2ccc(Cl)c(Cl)c2)CC1 [compound 55, 2-{2-[4-(3,4-Dichlorobenzyl)piperazin-1-yl]acetamido}-5-benzylthiophene-3-carboxamide] | 4090
CC(Sc1nnc(NC(=O)c2ccccc2)s1)c1nc2ccccc2c(=O)[nH]1 (centres unmarked) [compound 6, N-(5-{[1-(4-oxo-3,4-dihydro-2-quinazolinyl)ethyl]thio}-1,3,4-thiadiazol-2-yl)benzamide] | 4050
NC(=O)c1ccccc1NC(=O)c1cccc(COc2cccc(Cl)c2)c1 [compound 17, 2-({3-[(3-Chlorophenoxy)methyl]benzoyl}amino)benzamide] | 675
COc1ccc(C(=O)Nc2sc(Cc3ccccc3)cc2C(N)=O)cc1COc1c(Cl)cccc1Cl [compound 53, 5-Benzyl-2-{3-[(2,6-dichlorophenoxy)methyl]-4-methoxybenzamido}thiophene-3-carboxamide] | 2600
NC(=O)c1c(NC(=O)c2ccc(Cl)s2)sc2c1CCC2 [compound 29, 2-{[(5-Chloro-2-thienyl)carbonyl]amino}-5,6-dihydro-4H-cyclopenta[b]thiophene-3-carboxamide] | 6270
NC(=O)c1ccccc1NC(=O)c1ccccc1 [compound 14, N-(2-carbamoylphenyl)benzamide] | 10500
COc1cc(C=CC(=O)Nc2ccccc2C(N)=O)ccc1OCc1ccccc1 [compound 28, 2-({3-[4-(Benzyloxy)-3-methoxyphenyl]acryloyl}amino)benzamide] | 1880
COc1ccc(C(=O)Nc2sccc2C(N)=O)cc1COc1ccccc1Cl [compound 27, 2-{3-[(2-Chlorophenoxy)methyl]-4-methoxybenzamido}thiophene-3-carboxamide] | 1660
COc1ccc(C(=O)Nc2ccccc2C(N)=O)cc1Cl [compound 16, N-[2-(aminocarbonyl)phenyl]-3-chloro-4-methoxybenzamide] | 5840
NC(=O)c1ccccc1NC(=O)CN1CCN(Cc2ccc(F)cc2Cl)CC1 [compound 25, 2-({[4-(2-Chloro-4-fluorobenzyl)-1-piperazinyl]acetyl}amino)benzamide] | 3170
NC(=O)c1ccccc1NC(=O)c1ccc(Cl)s1 [compound 13, N-(2-carbamoylphenyl)-5-chlorothiophene-2-carboxamide] | 2300
NC(=O)c1cc(Cc2ccccc2)sc1NC(=O)c1ccc(Cl)s1 [compound 36, N-[3-(Aminocarbonyl)-5-benzyl-2-thienyl]-5-chloro-2-thiophenecarboxamide] | 1660
CCc1cc(C(=O)Nc2sccc2C(N)=O)cs1 [compound 15, 2-{[(5-Ethyl-3-thienyl)carbonyl]amino}-3-thiophenecarboxamide] | 2950
COc1ccc(OCc2cc(-c3nc4sc(Cc5ccccc5)cc4c(=O)[nH]3)ccc2OC)cc1 [compound 5, 6-Benzyl-2-{4-methoxy-3-[(4-methoxyphenoxy)methyl]phenyl}thieno[2,3-d]pyrimidin-4(3H)-one] | 1120
COc1ccc(C(=O)Nc2ccccc2C(N)=O)cc1COc1ccccc1Cl [compound 26, 2-{3-[(2-Chlorophenoxy)methyl]-4-methoxybenzamido}benzamide] | 1100
NC(=O)c1ccccc1NC(=O)C1CCN(C(=O)c2cccs2)CC1 [compound 11, N-[2-(aminocarbonyl)phenyl]-1-(2-thienylcarbonyl)-4-piperidinecarboxamide] | 5180
NC(=O)c1ccccc1NC(=O)CN1CCN(Cc2ccc(Cl)cc2Cl)CC1 [compound 21, 2-({[4-(2,4-Dichlorobenzyl)-1-piperazinyl]acetyl}amino)benzamide] | 993
Cc1ccc(C(=O)Nc2ccccc2C(N)=O)s1 [compound 2, N-[2-(aminocarbonyl)phenyl]-5-methyl-2-thiophenecarboxamide] | 2060
COc1ccc(C(=O)Nc2sc(Cc3ccccc3)cc2C(N)=O)cc1 [compound 41, 5-Benzyl-2-[(4-methoxybenzoyl)amino]-3-thiophenecarboxamide] | 1940
NC(=O)c1cc(Cc2ccccc2)sc1NC(=O)CCc1ccccc1 [compound 39, 5-Benzyl-2-[(3-phenylpropanoyl)amino]-3-thiophenecarboxamide] | 6210
